≈ marks a conversion by molar mass, not a printed value.
Experiments:
[1] = physchem; conditions: FaSSIF, pH 6.5
Description: Solubility of the compound in FaSSIF at pH 6.5 after 16 hrs by HPLC analysis

[2] = target: Bromodomain-containing protein 2 (Homo sapiens, UniProt P25440)
Description: Binding affinity to His6-tagged BRD2 (unknown origin) after 60 mins by fluorescence anisotropy binding Assay

[3] = target: Bromodomain-containing protein 3 (Homo sapiens, UniProt Q15059)
Description: Binding affinity to His6-tagged BRD3 (unknown origin) after 60 mins by fluorescence anisotropy binding Assay

[4] = tested on: PBMC; assay: cells; conditions: Homo sapiens, read-out: pIC50 (converted)
Description: Antiinflammatory activity against human PBMC cells assessed as LPS-induced IL-6 production by chemiluminescence assay

[5] = Half life in buffer at pH 2 by HPLC analysis; assay type: physicochemical
[6] = AUC (0 to infinity) in Balb/c mouse at 1 mg/kg, iv and 3 mg/kg, po after 1 hr; assay type: ADME, organism-based; conditions: plasma
[7] = dog, hepatocytes, 2 h
Description: Clearance in dog hepatocytes after 120 mins by LC/MS/MS analysis

[8] = tested on: Hepatocyte; conditions: rat, hepatocytes, 2 h
Description: Clearance in rat hepatocytes after 120 mins by LC/MS/MS analysis

[9] = Oral bioavailability in CD rat at 3 mg/kg after 1 hr; assay type: ADME, organism-based; conditions: in vivo
[10] = Oral bioavailability in beagle dog at 3 mg/kg after 1 hr; assay type: ADME, organism-based, Canis lupus familiaris; conditions: in vivo
[11] = tested on: Salmonella typhimurium; assay: Genotoxicity in Salmonella typhimurium TA1535 by Ames test in presence of rat S9 mix; assay type: toxicity, organism-based; conditions: salmonella enterica subsp. enterica serovar typhimurium
[12] = Volume of distribution in cynomolgus monkey at 2 mg/kg, iv and 5 mg/kg, po after 1 hr; assay type: ADME, organism-based, Macaca fascicularis; conditions: in vivo
[13] = tested on: Salmonella typhimurium; assay: Genotoxicity in Salmonella typhimurium TA100 by Ames test; assay type: toxicity, organism-based; conditions: salmonella enterica subsp. enterica serovar typhimurium
[14] = AUC (0 to infinity) in cynomolgus monkey at 2 mg/kg, iv and 5 mg/kg, po after 1 hr; assay type: ADME, organism-based, Macaca fascicularis; conditions: plasma
[15] = Fraction unbound in human blood at 1000 ng/ml by equilibrium dialysis method; assay type: ADME, tissue-based
[16] = in vivo; conditions: beagle, dog, iv, 1 mg/kg
[17] = Volume of distribution in Balb/c mouse at 1 mg/kg, iv and 3 mg/kg, po after 1 hr; assay type: ADME, organism-based; conditions: in vivo
[18] = tested on: Salmonella typhimurium; assay: Genotoxicity in Salmonella typhimurium TA100 by Ames test in presence of rat S9 mix; assay type: toxicity, organism-based; conditions: salmonella enterica subsp. enterica serovar typhimurium
[19] = in vivo; conditions: cynomolgus monkey, iv, 2 mg/kg
[20] = Volume of distribution in CD rat at 1 mg/kg, iv and 3 mg/kg, po after 1 hr; assay type: ADME, organism-based; conditions: in vivo
[21] = cynomolgus monkey, hepatocytes, 2 h
Description: Clearance in cynomolgus monkey hepatocytes after 120 mins by LC/MS/MS analysis

[22] = cynomolgus monkey, microsomes, 0.5 h
Description: Clearance in cynomolgus monkey liver microsomes after 30 mins by LC/MS/MS analysis

[23] = Fraction unbound in dog blood at 1000 ng/ml by equilibrium dialysis method; assay type: ADME, tissue-based, Canis lupus familiaris
[24] = tested on: Rattus norvegicus; assay: Antiinflammatory activity against po dosed Sprague-Dawley rat immunoinflammatory model assessed as inhibition of KLH-induced ear swelling administered qd for 7 days measured 24 hrs post KLH challenge relative to control; assay type: functional, organism-based
[25] = tested on: Liver; conditions: mouse, microsomes, 0.5 h
Description: Clearance in mouse liver microsomes after 30 mins by LC/MS/MS analysis

[26] = Fraction unbound in rat blood at 1000 ng/ml by equilibrium dialysis mehod; assay type: ADME, tissue-based
[27] = tested on: Liver; conditions: dog, microsomes, 0.5 h
Description: Clearance in dog liver microsomes after 30 mins by LC/MS/MS analysis

[28] = tested on: Liver microsomes; conditions: rat, 0.5 h
Description: Clearance in rat liver microsomes after 30 mins by LC/MS/MS analysis

[29] = tested on: Salmonella typhimurium; assay: Genotoxicity in Salmonella typhimurium TA98 by Ames test; assay type: toxicity, organism-based; conditions: salmonella enterica subsp. enterica serovar typhimurium
[30] = tested on: Salmonella typhimurium; assay: Genotoxicity in Salmonella typhimurium TA1537 by Ames test in presence of rat S9 mix; assay type: toxicity, organism-based; conditions: salmonella enterica subsp. enterica serovar typhimurium
[31] = Volume of distribution in beagle dog at 1 mg/kg, iv and 3 mg/kg, po after 1 hr; assay type: ADME, organism-based, Canis lupus familiaris; conditions: in vivo
[32] = Oral bioavailability in Balb/c mouse at 3 mg/kg after 1 hr; assay type: ADME, organism-based; conditions: in vivo
[33] = AUC (0 to infinity) in CD rat at 1 mg/kg, iv and 3 mg/kg, po after 1 hr; assay type: ADME, organism-based; conditions: plasma
[34] = Oral bioavailability in cynomolgus monkey at 5 mg/kg after 1 hr; assay type: ADME, organism-based, Macaca fascicularis; conditions: in vivo
[35] = AUC (0 to infinity) in beagle dog at 1 mg/kg, iv and 3 mg/kg, po after 1 hr; assay type: ADME, organism-based, Canis lupus familiaris; conditions: plasma
[36] = tested on: Hepatocyte; conditions: mouse, hepatocytes, 2 h
Description: Clearance in mouse hepatocytes after 120 mins by LC/MS/MS analysis

[37] = Terminal half life in cynomolgus monkey at 2 mg/kg, iv after 1 hr; assay type: ADME, organism-based, Macaca fascicularis; parameters: dose 2 mg/kg, route intravenous; conditions: in vivo, read-out: beta t1/2 (converted)
[38] = Terminal half life in beagle dog at 1 mg/kg, iv after 1 hr; assay type: ADME, organism-based, Canis lupus familiaris; parameters: dose 1 mg/kg, route intravenous; conditions: in vivo, read-out: beta t1/2 (converted)
[39] = tested on: Salmonella typhimurium; assay: Genotoxicity in Salmonella typhimurium TA1537 by Ames test; assay type: toxicity, organism-based; conditions: salmonella enterica subsp. enterica serovar typhimurium
[40] = tested on: Salmonella typhimurium; assay: Genotoxicity in Salmonella typhimurium TA98 by Ames test in presence of rat S9 mix; assay type: toxicity, organism-based; conditions: salmonella enterica subsp. enterica serovar typhimurium
[41] = Terminal half life in Balb/c mouse at 1 mg/kg, iv after 1 hr; assay type: ADME, organism-based; parameters: dose 1 mg/kg, route intravenous; conditions: in vivo, read-out: beta t1/2 (converted)
[42] = tested on: Hepatocyte; conditions: human, hepatocytes, 2 h
Description: Clearance in human hepatocytes after 120 mins by LC/MS/MS analysis

[43] = tested on: Liver microsomes; conditions: human, 0.5 h
Description: Clearance in human liver microsomes after 30 mins by LC/MS/MS analysis

[44] = tested on: Salmonella typhimurium; assay: Genotoxicity in Salmonella typhimurium TA1535 by Ames test; assay type: toxicity, organism-based; conditions: salmonella enterica subsp. enterica serovar typhimurium
[45] = in vivo; conditions: CD, rat, iv, 1 mg/kg
[46] = Terminal half life in CD rat at 1 mg/kg, iv after 1 hr; assay type: ADME, organism-based; parameters: dose 1 mg/kg, route intravenous; conditions: in vivo, read-out: beta t1/2 (converted)
[47] = Fraction unbound in mouse blood at 1000 ng/ml by equilibrium dialysis method; assay type: ADME, tissue-based
[48] = in vivo; conditions: Balb/c, mouse, iv, 1 mg/kg
[49] = tested on: HepG2; assay: Upregulation of human apoA1 level in human HepG2 cells after 16 to 20 hrs by luciferase reporter gene assay; assay type: functional

Bromodomain-containing protein 3, sequence (Q15059 whole entry): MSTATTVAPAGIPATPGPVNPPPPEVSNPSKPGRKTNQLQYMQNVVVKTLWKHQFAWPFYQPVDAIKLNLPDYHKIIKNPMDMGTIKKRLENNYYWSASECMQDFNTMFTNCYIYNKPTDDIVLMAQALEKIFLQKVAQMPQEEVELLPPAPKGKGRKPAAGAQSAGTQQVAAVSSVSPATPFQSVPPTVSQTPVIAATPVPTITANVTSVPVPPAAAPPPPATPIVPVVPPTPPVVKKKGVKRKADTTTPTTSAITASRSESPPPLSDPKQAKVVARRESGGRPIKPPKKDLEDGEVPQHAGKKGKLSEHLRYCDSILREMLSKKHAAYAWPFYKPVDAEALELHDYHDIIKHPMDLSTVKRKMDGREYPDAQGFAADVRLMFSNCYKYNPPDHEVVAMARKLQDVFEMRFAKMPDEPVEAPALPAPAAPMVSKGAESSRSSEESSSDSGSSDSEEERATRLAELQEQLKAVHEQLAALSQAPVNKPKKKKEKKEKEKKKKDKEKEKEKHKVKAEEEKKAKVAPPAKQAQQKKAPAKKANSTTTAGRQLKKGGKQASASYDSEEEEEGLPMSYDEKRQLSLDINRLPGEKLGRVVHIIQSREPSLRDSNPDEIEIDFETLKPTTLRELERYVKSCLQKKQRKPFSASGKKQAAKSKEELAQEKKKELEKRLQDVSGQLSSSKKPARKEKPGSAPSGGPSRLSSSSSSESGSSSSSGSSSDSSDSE
Bromodomain-containing protein 2, sequence (P25440 whole entry): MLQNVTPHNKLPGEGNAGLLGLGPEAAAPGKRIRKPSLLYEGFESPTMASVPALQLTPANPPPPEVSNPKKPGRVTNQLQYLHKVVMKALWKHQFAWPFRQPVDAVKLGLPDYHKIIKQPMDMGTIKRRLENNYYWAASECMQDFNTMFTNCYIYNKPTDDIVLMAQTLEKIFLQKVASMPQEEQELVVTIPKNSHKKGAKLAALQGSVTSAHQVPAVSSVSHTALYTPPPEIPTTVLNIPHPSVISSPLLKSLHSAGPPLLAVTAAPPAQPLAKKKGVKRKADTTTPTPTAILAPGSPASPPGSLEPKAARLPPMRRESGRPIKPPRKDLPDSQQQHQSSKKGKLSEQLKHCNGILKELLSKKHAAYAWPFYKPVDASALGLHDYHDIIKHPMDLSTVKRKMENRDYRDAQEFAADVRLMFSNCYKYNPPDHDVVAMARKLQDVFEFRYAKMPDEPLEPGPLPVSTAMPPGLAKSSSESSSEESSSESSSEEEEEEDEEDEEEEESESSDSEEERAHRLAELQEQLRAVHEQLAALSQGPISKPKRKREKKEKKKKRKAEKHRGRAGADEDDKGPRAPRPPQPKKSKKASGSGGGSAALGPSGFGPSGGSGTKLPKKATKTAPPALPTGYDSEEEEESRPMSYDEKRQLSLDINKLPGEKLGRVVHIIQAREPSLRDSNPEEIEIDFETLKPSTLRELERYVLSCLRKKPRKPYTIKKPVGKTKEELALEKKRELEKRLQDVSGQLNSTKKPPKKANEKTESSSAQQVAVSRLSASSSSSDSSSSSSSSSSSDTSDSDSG

COc1ccc2c(c1)C(c1ccc(Cl)cc1)=N[C@@H](CC(=O)NCC1CC1)c1nnc(C)n1-2
solubility at 16 h [1]: 111 µg/mL (≈ 247 µM)

Cc1nnc2n1-c1ccccc1C(c1ccccc1)=NC2NC(=O)CCc1ccccc1 (centres undefined)
IC50 [2]: 15.8 µM | IC50 [3]: 3.16 µM

COc1ccc2c(c1)C(c1ccc(Cl)cc1)=N[C@@H](CC(=O)Nc1cccnc1)c1nnc(C)n1-2
solubility at 16 h [1]: 95 µg/mL (≈ 201 µM)

Cc1nnc2n1-c1ccccc1C(c1ccccc1)=NC2NC(=O)Oc1cccc(F)c1 (centres undefined)
IC50 [2]: 3.16 µM | IC50 [3]: 1.26 µM

COc1cccc(C2=NC(NC(=O)OCc3ccccc3)c3nnc(C)n3-c3ccccc32)c1 (centres undefined)
IC50 [4]: 0.501 µM | IC50 [2]: 3.16 µM

Cc1ccc(C2=NC(NC(=O)OCc3ccccc3)c3nnc(C)n3-c3ccccc32)cc1 (centres undefined)
IC50 [2]: 1.58 µM | IC50 [3]: 1 µM

Cc1nnc2n1-c1ccccc1C(c1ccccc1)=NC2NC(=O)OCc1ccc(F)cc1 (centres undefined)
IC50 [4]: 0.316 µM | IC50 [2]: 2 µM | IC50 [3]: 1 µM | half-life [5]: 19.8 min

COc1ccccc1C1=NC(NC(=O)OCc2ccccc2)c2nnc(C)n2-c2ccccc21 (centres undefined)
IC50 [4]: 10 µM | IC50 [2]: 10 µM

CCNC(=O)C[C@@H]1N=C(c2cccc(F)c2)c2cc(OC)ccc2-n2c(C)nnc21
solubility at 16 h [1]: 116 µg/mL (≈ 285 µM)

CCOC(=O)NC1N=C(c2ccccc2)c2ccccc2-n2c(C)nnc21 (centres undefined)
half-life [5]: 33.6 min

CCOC(=O)NC1N=C(c2ccc(Cl)cc2)c2ccccc2-n2c(C)nnc21 (centres undefined)
IC50 [2]: 2.51 µM | IC50 [3]: 1.26 µM | half-life [5]: 45 min

Cc1ccc2c(c1)-n1c(C)nnc1C(NC(=O)OCc1ccccc1)N=C2c1ccccc1 (centres undefined)
IC50 [4]: 0.631 µM | IC50 [2]: 2.51 µM | IC50 [3]: 1.26 µM

CCOC(=O)N[C@@H]1N=C(c2ccccc2)c2ccccc2-n2c(C)nnc21
IC50 [4]: 0.2 µM | half-life [5]: 13.8 min

COc1ccc2c(c1)C(c1ccc(Cl)cc1)=N[C@@H](CC(=O)Nc1ccccn1)c1nnc(C)n1-2
solubility at 16 h [1]: 115 µg/mL (≈ 243 µM) | IC50 [4]: 0.316 µM

Cc1nnc2n1-c1ccccc1C(c1ccccc1)=NC2NS(=O)(=O)Cc1ccccc1 (centres undefined)
IC50 [4]: 15.8 µM | IC50 [2]: 31.6 µM

CCNC(=O)C[C@@H]1N=C(c2ccc(Cl)cc2)c2cc(OC)ccc2-n2c(C)nnc21 [MOLIBRESIB]
AUC(0-inf) [6]: 468 ng·h/mL | CLH [7]: < 1.7 mL/min/g | CLH [8]: < 0.86 mL/min/g | bioavailability [9]: 27% | bioavailability [10]: 44% | Activity [11]: Non-toxic | Vd [12]: 1.5 L/kg | Activity [13]: Non-toxic | AUC(0-inf) [14]: 3340 ng·h/mL | fraction unbound at 1000 ng/ml [15]: 0.19 | clearance at 1 h [16]: 5 mL/min/kg | Vd [17]: 6.5 L/kg | Activity [18]: Non-toxic | clearance at 1 h [19]: 14 mL/min/kg | Vd [20]: 1.8 L/kg | CLH [21]: < 0.085 mL/min/g | IC50 [4]: 0.316 µM | CLH [22]: 0.2 mL/min/g | fraction unbound at 1000 ng/ml [23]: 0.24 | Activity [24]: Dose-dependent effect | CLH [25]: < 0.53 mL/min/g | fraction unbound at 1000 ng/ml [26]: 0.18 | CLH [27]: 0.69 mL/min/g | CLH [28]: 1.45 mL/min/g | Activity [29]: Non-toxic | Activity [30]: Non-toxic | Vd [31]: 1.8 L/kg | bioavailability [32]: 61% | AUC(0-inf) [33]: 201 ng·h/mL | bioavailability [34]: 52% | AUC(0-inf) [35]: 4740 ng·h/mL | CLH [36]: < 0.86 mL/min/g | half-life [37]: 90 min | half-life [38]: 354 min | Activity [39]: Non-toxic | Activity [40]: Non-toxic | half-life [41]: 90 min | CLH [42]: < 0.86 mL/min/g | CLH [43]: < 0.53 mL/min/g | Activity [44]: Non-toxic | clearance at 1 h [45]: 63 mL/min/kg | half-life [46]: 30 min | fraction unbound at 1000 ng/ml [47]: 0.21 | clearance at 1 h [48]: 75 mL/min/kg

Cc1nnc2n1-c1ccccc1C(c1ccccc1)=NC2CC(=O)NCc1ccccc1 (centres undefined)
solubility at 16 h [1]: 1 µg/mL (≈ 2.37 µM) | IC50 [4]: 5.01 µM | IC50 [2]: 2.51 µM | IC50 [3]: 2 µM | half-life [5]: > 120 min

Cc1nnc2n1-c1ccccc1C(c1ccccc1)=NC2NC(=O)OCc1ccccc1 (centres undefined)
IC50 [4]: 0.158 µM | half-life [5]: 34.8 min | EC170 [49]: 0.22 µM

Cc1nnc2n1-c1ccccc1C(c1ccccc1)=NC2NC(=O)NCc1ccccc1 (centres undefined)
IC50 [4]: 0.398 µM | IC50 [2]: 2 µM | IC50 [3]: 0.794 µM

COc1ccc2c(c1)C(c1ccccc1)=NC(NC(=O)OCc1ccccc1)c1nnc(C)n1-2 (centres undefined)
IC50 [4]: 0.126 µM | IC50 [2]: 0.794 µM | IC50 [3]: 0.794 µM

CCNC(=O)C[C@@H]1N=C(c2ccc(Cl)cc2)c2ccc(OC)cc2-n2c(C)nnc21
IC50 [4]: 0.631 µM

COc1ccc(C2=NC(NC(=O)OCc3ccccc3)c3nnc(C)n3-c3ccccc32)cc1 (centres undefined)
IC50 [4]: 0.316 µM | IC50 [2]: 2 µM | IC50 [3]: 1 µM

CCCCOC(=O)C[C@@H]1N=C(c2ccc(Cl)cc2)c2cc(OC)ccc2-n2c(C)nnc21
solubility at 16 h [1]: 104 µg/mL (≈ 230 µM)

COC(=O)C[C@@H]1N=C(c2ccc(Cl)cc2)c2cc(OC)ccc2-n2c(C)nnc21
solubility at 16 h [1]: 115 µg/mL (≈ 280 µM) | IC50 [4]: 0.126 µM

COc1ccc2c(c1)C(c1ccc(Cl)cc1)=N[C@@H](CC(=O)O)c1nnc(C)n1-2
solubility at 16 h [1]: 113 µg/mL (≈ 285 µM) | IC50 [4]: > 100 µM

Cc1nnc2n1-c1ccc(Cl)cc1C(c1ccccc1)=NC2NC(=O)OCc1ccccc1 (centres undefined)
IC50 [4]: 0.631 µM | IC50 [2]: 3.16 µM | IC50 [3]: 1.58 µM

Cc1nnc2n1-c1ccc([N+](=O)[O-])cc1C(c1ccccc1)=NC2NC(=O)OCc1ccccc1 (centres undefined)
IC50 [4]: 2 µM | IC50 [2]: 12.6 µM

COc1ccc2c(c1)C(c1ccc(Cl)cc1)=N[C@@H](CC(=O)Nc1ccc(F)cc1)c1nnc(C)n1-2
solubility at 16 h [1]: 105 µg/mL (≈ 214 µM) | IC50 [4]: 2 µM

Reference: ChEMBL document CHEMBL2429783, “Discovery of epigenetic regulator I-BET762: lead optimization to afford a clinical candidate inhibitor of the BET bromodomains” (J Med Chem, 2013)
